In patent publication US7148232B2, “Oxazolo, thiazolo and selenazolo [4,5-c]-quinolin-4-amines and analogs thereof” (3M Innovative Properties Company, priority 1998, dated 2006):
“And” between values parts separate entries of the source, which are not always exact repeats. Identical values can stand only once.

Tests used:
[1] = system: interferon (α); test: Interferon (α) induction in human cells (in vitro human blood cell system, interferon by bioassay); format: cell-based; details: human PBM's, 48 hours
Description: An in vitro human blood cell system was used to assess interferon induction by compounds of the invention. Activity is based on the measurement of interferon secreted into culture media. Interferon is measured by bioassay.
Whole blood is collected by venipuncture into EDTA vacutainer tubes. Peripheral blood mononuclear cells (PBM's) are separated from whole blood by using either LeucoPREP™ Brand Cell Separation Tubes (available from Becton Dickinson) or Ficoll-Paque® solution (available from Pharmacia LKB Biotechnology Inc, Piscataway, N.J.). […] 200 μL portions of PBM suspension are added to 96 well (flat bottom) sterile tissue culture plates (Becton Dickinson Labware, Lincoln Park, N.J.).
The compounds are solubilized in ethanol, dimethyl sulfoxide or tissue culture water then diluted with tissue culture water, 0.01N sodium hydroxide or 0.01N hydrochloric acid (The choice of solvent will depend on the chemical characteristics of the compound being tested.). Ethanol or DMSO concentration should not exceed a final concentration of 1% for addition to the culture wells. Compounds are initially tested in a concentration range of from about 0.1 μg/mL to about 5 μg/mL. Compounds which show induction at a concentration of 0.5 μg/mL are then tested in a wider concentration range.
The solution of test compound is added in a volume (less than or equal to 50 μL) to the wells containing 200 μL of diluted whole blood or of PBM's in media. Solvent and/or media is added to control wells (wells with no test compound) and as needed to adjust the final volume of each well to 250 μL. The plates are covered with plastic lids, vortexed gently and then incubated for 48 hours at 37° C. with a 5% carbon dioxide atmosphere.
Following incubation, the plates are covered with parafilm and then centrifuged at 1000 rpm for 10 to 15 minutes at 4° C. in a Damon IEC Model CRU-5000 centrifuge. Media (about 200 μL) is removed from 4 to 8 wells and pooled into 2 mL sterile freezing vials. Samples are maintained at −70° C. until analysis.
Interferon is determined by bioassay using A549 human lung carcinoma cells challenged with encephalomyocarditis. The details of the bioassay method have been described by G. L. Brennan and L. H. Kronenberg in “Automated Bioassay of Interferons in Micro-test Plates”, Biotechniques, June/Jul. […] The incubated cells are infected with an inoculum of encephalomyocarditis virus. The infected cells are incubated for an additional period at 37° C. before quantifying for viral cytopathic effect. The viral cytopathic effect is quantified by staining followed by spectrophotometric absorbance measurements. Results are expressed as alpha reference units/mL based on the value obtained for NIH HU IF-L standard.
Compounds of the invention were tested for their ability to induce interferon in human cells using the test method described above.

Structure (SMILES)	melting point	Interferon (α) Induction in Human Cells ([1]; Dose Concentration 0.01 μg/mL)	Interferon (α) Induction in Human Cells ([1]; Dose Concentration 0.05 μg/mL)	Interferon (α) Induction in Human Cells ([1]; Dose Concentration 0.10 μg/mL)	Interferon (α) Induction in Human Cells ([1]; Dose Concentration 0.50 μg/mL)	Interferon (α) Induction in Human Cells ([1]; Dose Concentration 1.0 μg/mL)	Interferon (α) Induction in Human Cells ([1]; Dose Concentration 5.0 μg/mL)	Interferon (α) Induction in Human Cells ([1]; Dose Concentration 10.0 μg/mL)	Interferon (α) Induction in Human Cells ([1]; Dose Concentration 25.0 μg/mL)	Interferon (α) Induction in Human Cells ([1]; Dose Concentration 50.0 μg/mL)
Nc1nc2ccccc2c2sc(/C=C/c3ccccc3)nc12 [Example 22, 2-(2-Phenyl-1-ethenyl)thiazolo[4,5-c]quinolin-4-amine]	239 to 241 °C	−	−	−	−	−	−	+	+	+
CC(C)(Cc1nc2c(N)nc3ccccc3c2s1)OC(N)=O [Example 26, 2-(4-Aminothiazolo[4,5-c]quinolin-2-yl)-1,1-dimethylethyl Carbamate]	222 to 223 °C	−	−	−	−	−	+	+	+	+
CCCc1nc2c[n+]([O-])c3ccc(C)cc3c2s1 [Example 35, 8-Methyl-2-propylthiazolo[4,5-c]quinoline-5N-oxide]	143 to 145 °C									
CCCc1nc2c(N)nc3ccc(C)cc3c2s1 [Example 36, 8-Methyl-2-propylthiazolo[4,5-c]quinolin-4-amine]	147 to 149 °C	−	−	−	−	+	+			
Cc1nc2c(N)nc3ccccc3c2o1 [Example 38, 2-Methyloxazolo[4,5-c]quinolin-4-amine]	195 to 197 °C	−	−	−	+	+	+			
CCCCc1nc2c[n+]([O-])c3ccccc3c2o1 [Example 40, 2-Butyloxazolo[4,5-c]quinoline-5N-oxide]	120 to 121 °C									
CS(=O)(=O)c1nc2c[n+]([O-])c3ccccc3c2s1 [Example 51, 2-(Methylsulfonyl)thiazolo[4,5-c]quinolin-5N-oxide]	245 to 247 °C									
[O-][n+]1cc2nc(N3CCOCC3)sc2c2ccccc21 [Example 52, 2-(4-Morpholino)thiazolo[4,5-c]quinoline-5N-oxide]	241 to 242 °C									
CCCCc1nc2c[n+]([O-])c3cccnc3c2s1 [Example 57, 2-Butylthiazolo[4,5-c][1,5]naphthyridine-5N-oxide]	65 to 69 °C									
CCCc1nc2c[n+]([O-])c3cccnc3c2s1 [Example 59, 2-Propylthiazolo[4,5-c][1,5]naphthyridine-5N-oxide]	139 to 142 °C									
CCCc1nc2c[n+]([O-])ccc2s1 [Example 61, 2-Propylpyrido[3,4-d][1,3]thiazole-5N-oxide]	137 to 139 °C									

The next lines start with results.

melting point	Structure (SMILES)	Interferon (α) Induction in Human Cells ([1]; Dose Concentration 0.01 μg/mL)	Interferon (α) Induction in Human Cells ([1]; Dose Concentration 0.05 μg/mL)	Interferon (α) Induction in Human Cells ([1]; Dose Concentration 0.10 μg/mL)	Interferon (α) Induction in Human Cells ([1]; Dose Concentration 0.50 μg/mL)	Interferon (α) Induction in Human Cells ([1]; Dose Concentration 1.0 μg/mL)	Interferon (α) Induction in Human Cells ([1]; Dose Concentration 5.0 μg/mL)	Interferon (α) Induction in Human Cells ([1]; Dose Concentration 10.0 μg/mL)	Interferon (α) Induction in Human Cells ([1]; Dose Concentration 25.0 μg/mL)	Interferon (α) Induction in Human Cells ([1]; Dose Concentration 50.0 μg/mL)
184 to 187 °C and 184 to 186 °C	Cc1nc2c(N)nc3ccccc3c2s1 [Example 2, 2-Methylthiazolo[4,5-c]quinolin-4-amine]	−	−	±	+	+	+			
323 to 325 °C	Cc1nc2c(N)nc3ccccc3c2s1.Cl [Example 4, 2-Methylthiazolo[4,5-c]quinolin-4-amine Hydrochloride]	−	−	−	+	+	+			
170 to 172 °C and 169 to 171 °C	CCc1nc2c(N)nc3ccccc3c2s1 [Example 8, 2-Ethylthiazolo[4,5-c]quinolin-4-amine]	−	−	−	+	+	+			
119 to 121 °C	CCCCCc1nc2c(N)nc3ccccc3c2s1 [Example 16, 2-Pentylthiazolo[4,5-c]quinolin-4-amine]	−	−	−	−	+	+			
149 to 151 °C	CCOCc1nc2c(N)nc3ccccc3c2s1 [Example 28, 2-(Ethoxymethyl)thiazolo[4,5-c]quinoline-4-amine]	−	−	−	+	+	+			
183 to 185 °C	COCc1nc2c(N)nc3ccccc3c2s1 [Example 30, 2-(Methoxymethyl)thiazolo[4,5-c]quinolin-4-amine]	−	−	−	−	+	+			
123 to 125 °C	CC(C)Cc1nc2c(N)nc3ccccc3c2s1 [Example 32, 2-(2-Methylpropyl)thiazolo[4,5-c]quinolin-4-amine]	−	−	±	+	+	+			
247 to 249 °C	Nc1nc2ccccc2c2sc(CO)nc12 [Example 37, (4-Aminothiazolo[4,5-c]quinolin-2-yl)-methanol]	−	−	−	−	−	−			
